Consider 22 compounds from patent US7709482B2, “Polycyclic heteroaryl substituted triazoles useful as Axl inhibitors” (Rigel Pharmaceuticals, Inc., priority 2006, dated 2010).

Molecules are shown by their SMILES. pIC50: −log10 of the molar value. Read-outs that look alike come from different tables or passages of the source.

In the test the target is T1, Axl (Homo sapiens, UniProt P30530).
T1 construct: endogenous in cells; host or cells: HeLa cells
T1 sequence (P30530 26-894): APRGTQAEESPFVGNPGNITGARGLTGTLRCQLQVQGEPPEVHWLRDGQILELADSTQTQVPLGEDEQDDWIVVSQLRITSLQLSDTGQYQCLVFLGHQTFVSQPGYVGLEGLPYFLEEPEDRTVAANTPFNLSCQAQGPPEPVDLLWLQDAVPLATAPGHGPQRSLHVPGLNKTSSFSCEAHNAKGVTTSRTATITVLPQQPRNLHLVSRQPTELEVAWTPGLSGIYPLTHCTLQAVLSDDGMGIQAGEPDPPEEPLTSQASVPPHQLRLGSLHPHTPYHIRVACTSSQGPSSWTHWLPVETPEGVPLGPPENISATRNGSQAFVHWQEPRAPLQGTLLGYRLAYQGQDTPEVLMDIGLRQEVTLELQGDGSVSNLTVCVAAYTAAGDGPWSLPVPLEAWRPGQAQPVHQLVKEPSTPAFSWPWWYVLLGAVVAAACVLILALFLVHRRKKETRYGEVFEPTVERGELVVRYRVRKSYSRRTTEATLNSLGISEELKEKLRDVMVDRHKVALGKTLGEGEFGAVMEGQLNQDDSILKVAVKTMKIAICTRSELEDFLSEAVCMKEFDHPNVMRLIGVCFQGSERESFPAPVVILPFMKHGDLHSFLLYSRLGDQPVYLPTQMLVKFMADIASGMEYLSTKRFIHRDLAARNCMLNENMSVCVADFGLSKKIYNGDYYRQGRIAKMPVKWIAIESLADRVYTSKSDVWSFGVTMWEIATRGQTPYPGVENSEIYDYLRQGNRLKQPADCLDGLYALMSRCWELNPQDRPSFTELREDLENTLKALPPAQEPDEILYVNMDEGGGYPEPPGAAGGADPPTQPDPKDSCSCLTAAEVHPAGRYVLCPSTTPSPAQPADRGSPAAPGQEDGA
The experiment in a line: Phospho-Akt In-Cell Western Assay (inhibition of Axl activity after Axl-antibody cross-linking). The test is classed as cell-based. The following applies: read-out: IC50. Summed up:
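HeLa cells on poly-L-lysine, starved 24 h in 0.5% FCS DMEM with Axl/Fc 500 ng/mL, pre-treated with compound 1 h at 37 °C, then stimulated 5 min by anti-Axl/anti-mouse antibody cross-linking. Fixed cells probed for phospho-Akt with HRP secondary and chemiluminescent detection.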

[1] abbreviates: Hela cells, phospho-Akt chemiluminescence normalized to relative cell number, compounds of formula (Ia), Table 1.
[2] abbreviates: inhibition of Axl activity, Table 1, compounds of formula (Ia).

In general, pIC50 refers to the negative decadic logarithm of the IC50, by convention in mol/L.

Consider `CCCN1CCC2CN(c3ccc(Nc4nc(N)n(-c5cc6c(nn5)-c5ccccc5CCC6)n4)cc3F)CCC21` (stereo not shown) [Compound 84, 1-(6,7-dihydro-5H-benzo[6,7]cyclohepta[1,2-c]pyridazin-3-yl)-N^3-(3-fluoro-4-(1-propyloctahydro-1H-pyrrolo[3,2-c]pyridine-5-yl)phenyl)-1H-1,2,4-triazole-3,5-diamine], for which the pIC50 under setting [1] was above 6.00.

Turning to `Nc1nc(Nc2ccc(C=CCN3CCN(C4CCCC4)CC3)cc2)nn1-c1cc2c(nn1)-c1ccccc1CCC2` [Compound 206, 1-(6,7-dihydro-5H-benzo[6,7]cyclohepta[1,2-c]pyridazin-3-yl)-N^3-(4-(4-cyclopentylpiperazin-1-ylprop-1-enyl)phenyl)-1H-1,2,4-triazole-3,5-diamine], the negative-log IC50 (pIC50) under setting [2] was above 6.00.

Regarding `Nc1nc(Nc2ccc3c(c2)CN(C2CCCC2)CC3)nn1-c1cc2c(nn1)-c1ccccc1CCC2` [Compound 153, 1-(6,7-dihydro-5H-benzo[6,7]cyclohepta[1,2-c]pyridazin-3-yl)-N^3-(2-cyclopentyl-1,2,3,4-tetrahydroisoquinolin-7-yl)-1H-1,2,4-triazole-3,5-diamine], the pIC50 under setting [2] is above 6.00.

As to `Nc1nc(Nc2ccc(C3CCN(C4CC5CCC4C5)CC3)cc2)nn1-c1cc2c(nn1)-c1ccccc1CCC2` (stereo not shown) [Compound 211, 1-(6,7-dihydro-5H-benzo[6,7]cyclohepta[1,2-c]pyridazin-3-yl)-N^3-(4-(1-bicyclo[2.2.1]heptan-2-yl)-piperidin-4-ylphenyl)-1H-1,2,4-triazole-3,5-diamine], the pIC50 under setting [2] was below 4.70.

With `Nc1nc(Nc2ccc(N3CCC(N4CCCC4)CC3)c(F)c2)nn1-c1cc2c(nn1)CCCc1ccccc1-2` [Compound 178, 1-(6,7-dihydro-5H-benzo[6,7]cyclohepta[4,5-c]pyridazin-2-yl)-N^3-(3-fluoro-4-(4-pyrrolidin-1-ylpiperidin-1-yl)phenyl)-1H-1,2,4-triazole-3,5-diamine], the negative logarithm of the IC50 (pIC50) under setting [2] was above 6.00.

For the compound `COc1cc2c(c(OC)c1OC)-c1nnc(-n3nc(Nc4ccc(N5CCC(N6CCCC6)CC5)c(F)c4)nc3N)cc1CCC2` [Compound 65, 1-(6,7-dihydro-5H-9,10,11-trimethoxybenzo[6,7]cyclo-hepta[1,2-c]pyridazin-3-yl)-N^3-(3-fluoro-4-(4-pyrrolidin-1-yl-piperidin-1-yl)phenyl)-1H-1,2,4-triazole-3,5-diamine], the pIC50 under setting [1] was above 6.00.

With `Nc1nc(Nc2ccc(N3CCC(N4CCCC4)CC3)nc2)nn1-c1cc2c(nn1)-c1ccccc1CCC2` [Compound 29, 1-(6,7-dihydro-5H-benzo[6,7]cyclohepta[1,2-c]pyridazin-3-yl)-N^3-(6-(4-(pyrrolidin-1-yl)piperidin-1-yl)pyridine-3-yl)-1H-1,2,4-triazole-3,5-diamine], under setting [1], the negative-log IC50 (pIC50) is 5.00 to 6.00.

On to `CC1(C)CCCC(C)(C)N1CCOc1ccc(Nc2nc(N)n(-c3cc4c(nn3)-c3ccccc3CCC4)n2)cc1` [Compound 14, 1-(6,7-dihydro-5H-benzo[6,7]cyclohepta[1,2-c]pyridazin-3-yl)-N^3-(4-(2,2,6,6-tetramethylpiperidin-1-yl)ethoxyphenyl)-1H-1,2,4-triazole-3,5-diamine], for which the negative-log IC50 (pIC50) under setting [1] was 5.00 to 6.00.

In the case of `Cc1cc(Nc2nc(N)n(-c3cc4c(nn3)-c3ccccc3CCC4)n2)cnc1N1CCC(N2CCCC2)CC1` [Compound 136, 1-(6,7-dihydro-5H-benzo[6,7]cyclohepta[1,2-c]pyridazin-3-yl)-N^3-(6-(4-(pyrrolidin-1-yl)piperidin-1-yl)-5-methylpyridin-3-yl)-1H-1,2,4-triazole-3,5-diamine], the pIC50 under setting [2] is above 6.00.

In the case of `CN1CCN(c2ccc(Nc3nc(N)nn3-c3cc4c(nn3)-c3ccccc3N(C)CC4)cc2)CC1` [Compound 162, 1-(7-methyl-6,7-dihydro-5H-benzo[2,3]azepino[4,5-c]pyridazin-3-yl)-N^5-(4-(N-methylpiperazin-1-yl)phenyl)-1H-1,2,4-triazole-3,5-diamine], the pIC50 (Hela cells, phospho-Akt chemiluminescence normalized to relative cell number, compounds of formula (Ib), Table 2) is below 4.70.

`Nc1nc(Nc2ccc3c(c2)CCCCO3)nn1-c1cc2c(nn1)-c1ccccc1CCC2` [Compound 89, 1-(6,7-dihydro-5H-benzo[6,7]cyclohepta[1,2-c]pyridazin-3-yl)-N^3-(2,3,4,5-tetrahydrobenzo[b]oxepin-7-yl)-1H-1,2,4-triazole-3,5-diamine]: under setting [1], the negative-log IC50 (pIC50) is 5.00 to 6.00.

In the case of `CCCCN(Cc1ccc(Nc2nc(N)n(-c3cc4c(nn3)-c3ccccc3CCC4)n2)cc1)C(C)=O` [Compound 90, 1-(6,7-dihydro-5H-benzo[6,7]cyclohepta[1,2-c]pyridazin-3-yl)-N^3-(4-((N-butyl-N-acetoamino)methyl)phenyl)-1H-1,2,4-triazole-3,5-diamine], the negative logarithm of the IC50 (pIC50) under setting [1] is 5.00 to 6.00.

Consider `CN1CCN(C2CCN(c3ccc(Nc4nc(N)n(-c5cc6c(nn5)-c5ccccc5CCC6)n4)cc3F)CC2)CC1` [Compound 58, 1-(6,7-dihydro-5H-benzo[6,7]cyclohepta[1,2-c]pyridazin-3-yl)-N^3-(3-fluoro-4-(4-(4-methylpiperazin-1-yl)piperidin-1-yl)phenyl)-1H-1,2,4-triazole-3,5-diamine], for which the negative-log IC50 (pIC50) under setting [1] is above 6.00.

`CN1CCN(C(=O)C2CCc3ncc(Nc4nc(N)n(-c5cc6c(nn5)-c5ccccc5CCC6)n4)cc3C2)CC1` (stereo not shown) [Compound 31, 1-(6,7-dihydro-5H-benzo[6,7]cyclohepta[1,2-c]pyridazin-3-yl)-N^3-(6-(4-methylpiperazin-1-yl)carbonyl-5,6,7,8-tetrahydroquinolin-3-yl)-1H-1,2,4-triazole-3,5-diamine]: the negative-log IC50 (pIC50) under setting [1] is above 6.00.

For `COc1ccc2c(c1)CCCc1cc(-n3nc(Nc4ccc(N5CCN(C6CCCCC6)CC5)c(F)c4)nc3N)nnc1-2` [Compound 57, 1-(6,7-dihydro-5H-9-methoxybenzo[6,7]cyclo-hepta[1,2-c]pyridazin-3-yl)-N^3-(3-fluoro-4-(4-(cyclohexyl)piperazin-1-yl)phenyl)-1H-1,2,4-triazole-3,5-diamine], under setting [1], the pIC50 is below 4.70.

Take `Nc1nc(Nc2ccc(N3CCCN(C4CCCC4)CC3)nc2)nn1-c1cc2c(nn1)-c1ccccc1CCC2` [Compound 25, 1-(6,7-dihydro-5H-benzo[6,7]cyclohepta[1,2-c]pyridazin-3-yl)-N^3-(6-(4-cyclopentyl-1,4-diazepan-1-yl)pyridin-3-yl)-1H-1,2,4-triazole-3,5-diamine]: under setting [1], the negative-log IC50 (pIC50) was above 6.00.

Take `CN1CCN(c2ccc(Nc3nc(N)n(-c4cc5c(nn4)-c4ccccc4CCC5)n3)cc2F)CC1c1ccccc1` (stereo not shown) [Compound 5, 1-(6,7-dihydro-5H-benzo[6,7]cyclohepta[1,2-c]pyridazin-3-yl)-N^3-(3-fluoro-4-(4-methyl-3-phenylpiperazin-1-yl)phenyl)-1H-1,2,4-triazole-3,5-diamine]: under setting [1], the negative-log IC50 (pIC50) was below 4.70.

Take `Nc1nc(Nc2ccc(N3CCC(CN4CCCC4)CC3)c(F)c2)nn1-c1cc2c(nn1)-c1ccccc1SCC2` [Compound 125, 1-(6,7-dihydro-5H-benzo[2,3]thiepino[4,5-c]pyridazin-3-yl)-N^3-(3-fluoro-4-(4-(pyrrolidinylmethyl)-piperidinyl)phenyl)-1H-1,2,4-triazole-3,5-diamine]: the pIC50 under setting [1] is above 6.00.

In the case of `CN1CCN(C2CCN(CC=Cc3ccc(Nc4nc(N)n(-c5cc6c(nn5)-c5ccccc5CCC6)n4)cc3)CC2)CC1` [Compound 196, 1-(6,7-dihydro-5H-benzo[6,7]cyclohepta[1,2-c]pyridazin-3-yl)-N^3-(4-(4-(4-methylpiperazin-1-yl)piperidin-1-ylprop-1-enyl)phenyl)-1H-1,2,4-triazole-3,5-diamine], under setting [2], the pIC50 was above 6.00.

Regarding `Nc1nc(Nc2ccc(N3CCC(N4CCCCC4)CC3)c(F)c2)nn1-c1cc2c(nn1)-c1ccccc1CCC2` [Compound 6, 1-(6,7-dihydro-5H-benzo[6,7]cyclohepta[1,2-c]pyridazin-3-yl)-N^3-(3-fluoro-(4-(4-piperidin-1-yl)piperidin-1-yl)phenyl)-1H-1,2,4-triazole-3,5-diamine], under setting [1], the negative-log IC50 (pIC50) is above 6.00.

As to `Nc1nc(Nc2ccc(N3CCN([C@H]4CC5CCC4C5)CC3)cc2)nn1-c1ncc2c(n1)-c1ccccc1CCC2` (stereo partly drawn) [Compound 46, 1-(6,7-dihydro-5H-benzo[6,7]cyclohepta[1,2-d]pyrimidin-2-yl)-N^3-(4-(4-(2S)-bicyclo[2.2.1]heptan-2-yl)-piperazinylphenyl)-1H-1,2,4-triazole-3,5-diamine], the pIC50 under setting [1] is above 6.00.

`Nc1nc(Nc2ccc(N3CCC(N4CCCC4)CC3)c(F)c2)nn1-c1cc2c(nn1)-c1ccccc1CCC2` [Compound 4]: the pIC50 under setting [1] was above 6.00.
